The assay relates to southern root-knot nematode (Meloidgyne incognita). Put plainly: Test on southern root-knot nematode (soil treatment, tomato seedling, root knot index). Conditions: 7 ml of 1600 ppm chemical solution mixed into 300 ml contaminated soil; tomato seedling in 2-leaf stage; three to four weeks after transplantation. Also on record: key: 0: No knot was formed; 1: Knots were formed to a slight degree; 2: Knots were formed to a moderate degree; 3: Knots were formed to a heavy degree; 4: Knots were formed to the heaviest degree. It is filed as in vivo. How it is done:
TEST EXAMPLE 1 Test on Southern Root-knot Nematode (Meloidgyne incognita) To 300 ml of the soil contaminated by southern root-knot nematode, 7 ml of a chemical solution having the concentration of the compound of the present invention adjusted to be 1600 ppm, was poured, followed by mixing so that the compound was uniformly dispersed. The treated soil was put into a pot (diameter: 9 cm, height: 8 cm), and then a tomato seedling in 2-leaf stage was transplanted and placed in a greenhouse. After three to four weeks from the transplantation of the tomato, the root knot index was determined based on the following standards. [table]
In the case of `CCC(C)(NC(=O)c1ccccc1F)C(=O)c1ccc(Cl)cc1` (racemic) [1-51], the root knot index amounted to 1.

The compound `CCC(C)(NC(=O)c1c(F)cccc1F)C(=O)c1ccc(Cl)cc1` (racemic) [1-151] came in with a root knot index of 1. In the case of `CC(C)(NC(=O)c1ccccc1F)C(=O)c1ccccc1` [1-1] it was 1. Then `CC(C)(NC(=O)c1c(F)cccc1F)C(=O)c1ccccc1` [1-4], with 1; and `CC(C)(NC(=O)c1ccccc1Br)C(=O)c1ccccc1` [1-17], with 1.

For the compound `Cc1ccccc1C(=O)NC(C)(C)C(=O)c1ccccc1` [1-18], the root knot index was found to be 1. In turn, `Cc1ccc(C(=O)NC(C)(C)C(=O)c2ccccc2)cc1` [1-19] had a root knot index of 1. `CC(C)(NC(=O)c1ccccc1C(F)(F)F)C(=O)c1ccccc1` [1-24]: the root knot index was determined as 1.

`CC(C)(NC(=O)c1ccc(C(F)(F)F)cc1)C(=O)c1ccccc1` [1-28] showed a root knot index of 1.

For `CSc1ccccc1C(=O)NC(C)(C)C(=O)c1ccccc1` [1-31], the root knot index came out at 1. The compound `CC(C)(NC(=O)c1ccccc1[N+](=O)[O-])C(=O)c1ccccc1` [1-38] yielded a root knot index of 1. In the case of `CC(C)(NC(=O)c1ccccc1)C(=O)c1ccc(Cl)cc1` [1-49] it was 1; in that of `CC(C)(NC(=O)c1ccccc1F)C(=O)c1ccc(Cl)cc1` [1-50], 1. On to `CC(C)(NC(=O)c1ccccc1Br)C(=O)c1ccc(Cl)cc1` [1-64], for which the root knot index is given as 1. `Cc1ccccc1C(=O)NC(C)(C)C(=O)c1ccc(Cl)cc1` [1-65] displayed a root knot index of 1. Compound `CC(C)(NC(=O)c1ccccc1C(F)(F)F)C(=O)c1ccc(Cl)cc1` [1-70] gave a root knot index of 1. In the case of `CC(C)(NC(=O)c1ccccc1F)C(=O)c1ccc(Cl)c(Cl)c1` [1-77] it was 1; in that of `CCc1ccc(C(=O)C(C)(C)NC(=O)c2ccccc2Cl)cc1` [1-83], 1; in that of `COc1ccc(C(=O)C(C)(C)NC(=O)c2ccccc2Cl)cc1` [1-93], 1.

For the compound `CC(C)(NC(=O)c1ccccc1Cl)C(=O)c1ccc(OC(F)F)cc1` [1-95], the root knot index came to 1. The compound `CC(C)(NC(=O)c1ccc(F)cc1F)C(=O)c1ccccc1` [1-125] had a root knot index of 1. In turn, `CC(C)(NC(=O)c1c(F)cccc1F)C(=O)c1cccc(F)c1` [1-126] gave a root knot index of 1.

`CC(C)(NC(=O)c1cccc(F)c1F)C(=O)c1ccc(F)cc1` [1-127]: the root knot index is on record as 1. `CC(C)(NC(=O)c1c(F)cccc1F)C(=O)c1ccc(F)cc1` [1-128] yielded a root knot index of 1. As to `CC(C)(NC(=O)c1ccccc1F)C(=O)c1ccc(F)c(F)c1` [1-130], the root knot index stood at 1.

`CC(C)(NC(=O)c1ccccc1Cl)C(=O)c1ccc(F)c(F)c1` [1-131] displayed a root knot index of 1. In the case of `CC(C)(NC(=O)c1ccccc1C(F)(F)F)C(=O)c1ccc(F)c(F)c1` [1-132] it was 1; in that of `CC(C)(NC(=O)c1c(F)cccc1F)C(=O)c1ccc(F)c(F)c1` [1-133], 1. `CC(C)(NC(=O)c1c(F)cccc1F)C(=O)c1ccccc1Cl` [1-134] had a root knot index of 1. Then `CC(C)(NC(=O)c1c(F)cccc1F)C(=O)c1cccc(Cl)c1` [1-135], with 1. In the case of `CC(C)(NC(=O)c1ccccc1[N+](=O)[O-])C(=O)c1ccc(Cl)cc1` [1-136], the root knot index is 1. In turn, `CC(C)(NC(=O)c1ccc(F)cc1Cl)C(=O)c1ccc(Cl)cc1` [1-138] gave a root knot index of 1. In the case of `CC(C)(NC(=O)c1cccc(F)c1F)C(=O)c1ccc(Cl)cc1` [1-139] it was 1; in that of `CC(C)(NC(=O)c1ccc(F)cc1F)C(=O)c1ccc(Cl)cc1` [1-140], 1; in that of `CC(C)(NC(=O)c1cc(F)ccc1F)C(=O)c1ccc(Cl)cc1` [1-141], 1. As to `CC(C)(NC(=O)c1c(F)cccc1Cl)C(=O)c1ccc(Cl)cc1` [1-142], the root knot index is reported as 1.

In turn, `CC(C)(NC(=O)c1c(F)cccc1F)C(=O)c1ccc(Cl)cc1Cl` [1-143] had a root knot index of 1.

As for `CC(C)(NC(=O)c1c(F)cccc1F)C(=O)c1ccc(Cl)c(Cl)c1` [1-147], the root knot index is given as 1. Then `CC(C)(NC(=O)c1ccccc1Cl)C(=O)c1ccc(Br)cc1` [1-155], with 1.

The compound `CC(C)(NC(=O)c1c(F)cccc1F)C(=O)c1ccc(Br)cc1` [1-157] had a root knot index of 1. Then `CC(C)(NC(=O)c1ccccc1F)C(=O)c1ccc(Br)cc1` [1-158], with 1.

Compound `CC(C)(NC(=O)c1cccc(F)c1F)C(=O)c1ccc(Br)cc1` [1-159] gave a root knot index of 1.

Consider `CC(C)(NC(=O)c1ccccc1F)C(=O)c1ccc(I)cc1` [1-160], for which the root knot index was 1. As for `CC(C)(NC(=O)c1ccccc1C(F)(F)F)C(=O)c1ccc(I)cc1` [1-161], the root knot index is on record as 1. For the compound `CC(C)(NC(=O)c1c(F)cccc1F)C(=O)c1ccc(I)cc1` [1-162], the root knot index was found to be 1. As for `Cc1ccc(C(=O)C(C)(C)NC(=O)c2c(F)cccc2F)cc1` [1-163], the root knot index turned out to be 1. As to `CCc1ccc(C(=O)C(C)(C)NC(=O)c2c(F)cccc2F)cc1` [1-164], the root knot index is given as 1.

For the compound `CC(C)(NC(=O)c1c(F)cccc1F)C(=O)c1ccc(C(F)(F)F)cc1` [1-166], the root knot index stood at 1.

For `CC(C)(NC(=O)c1ccccc1F)C(=O)c1ccc(C(F)(F)F)cc1` [1-167], the root knot index came out at 1. In the case of `COc1ccc(C(=O)C(C)(C)NC(=O)c2c(F)cccc2F)cc1` [1-168], the root knot index is listed as 1. Then `CCOc1ccc(C(=O)C(C)(C)NC(=O)c2c(F)cccc2F)cc1` [1-169], with 1; and `CC(C)(NC(=O)c1ccccc1F)C(=O)c1ccc(OC(F)F)cc1` [1-171], with 1. The compound `CC(C)(NC(=O)c1c(F)cccc1F)C(=O)c1ccc(OC(F)F)cc1` [1-172] gave a root knot index of 1.

As for `CC(C)(NC(=O)c1ccccc1F)C(=O)c1ccc(OCC(F)(F)F)cc1` [1-173], the root knot index is recorded as 1. `CC(C)(NC(=O)c1c(F)cccc1F)C(=O)c1ccc(OCC(F)(F)F)cc1` [1-174] gave a root knot index of 1.

Compound `CC(C)(NC(=O)c1ccccc1F)C(=O)c1ccc(OC(F)(F)C(F)F)cc1` [1-175] came in with a root knot index of 1. The compound `CC(C)(NC(=O)c1ccccc1Cl)C(=O)c1ccc(OC(F)(F)C(F)F)cc1` [1-176] gave a root knot index of 1. In turn, `CC(C)(NC(=O)c1c(F)cccc1F)C(=O)c1ccc(OC(F)(F)C(F)F)cc1` [1-177] gave a root knot index of 1. `CC(C)(NC(=O)c1ccccc1C(F)(F)F)C(=O)c1ccc(OC(F)(F)C(F)F)cc1` [1-178] yielded a root knot index of 1.

Regarding `CC(C)(NC(=O)c1ccccc1F)C(=O)c1ccc(OCC(F)(F)C(F)(F)F)cc1` [1-179], the root knot index is on record as 1.

On to `CC(C)(NC(=O)c1c(F)cccc1F)C(=O)c1ccc(OCC(F)(F)C(F)(F)F)cc1` [1-180], for which the root knot index was 1. Compound `CC(C)(NC(=O)c1c(F)cccc1F)C(=O)c1ccc(Oc2ccc(C(F)(F)F)cn2)cc1` [1-211] had a root knot index of 1. In the case of `CSc1ccc(C(=O)C(C)(C)NC(=O)c2c(F)cccc2F)cc1` [1-212] it was 1. Then `CC(C)(NC(=O)c1c(F)cccc1F)C(=O)c1ccc(S(C)(=O)=O)cc1` [1-213], with 1.

`CC(C)(NC(=O)c1cccnc1Cl)C(=O)c1ccccc1` [2-2]: the root knot index amounted to 1.

`CC(C)(NC(=O)c1ccccc1Cl)C(=O)c1ccccc1` [Compound No. 1-5]: the root knot index is on record as 1.

As to `CN(C(=O)c1ccccc1C(F)(F)F)C(C)(C)C(=O)c1ccccc1` [Compound No. 1-27, N-methyl-N-[(1,1-dimethyl)phenacyl]-2-trifluoromethylbenzamide], the root knot index stood at 1.

For `CC(C)(NC(=O)c1ccccc1Cl)C(=O)c1ccc(Cl)cc1` [Compound No. 1-54, 2-chloro-N-[(4′-chloro-1,1-dimethyl)phenacyl]benzamide], the root knot index was determined as 1. In the case of `CCc1ccc(C(=O)C(C)(C)NC(=O)c2cc(Cl)cc(Cl)c2)cc1` [Compound No. 1-84, 3,5-dichloro-N-[(4′-ethyl-1,1-dimethyl)phenacyl]benzamide], the root knot index is 1.
